Data as given in patent US10172358B2, “Thiopicolinamide compounds with fungicidal activity” (Dow AgroSciences LLC, priority 2016, dated 2019).
Read-outs that look alike come from different tables or passages of the source.

Columns and labels:
Zymoseptoria tritici = assay: Fungicidal activity: leaf blotch of wheat (SEPTTR), disease control on wheat seedlings; type: in vivo, Zymoseptoria tritici on wheat plants (variety Yuma); details: for pest or weed control at 100 ppm: high volume application; for pest or weed control at 121.5 g/ha: low volume application, 121.5 g/H
Procedure: Evaluation of Fungicidal Activity: Leaf Blotch of Wheat (Zymoseptoria Tritici; Bayer Code […]) Technical grades of materials were dissolved in acetone, which were then mixed with nine volumes of water (H2O) containing 110 ppm Triton X-100. The fungicide solutions were applied onto wheat seedlings using an automated booth sprayer to run-off. All sprayed plants were allowed to air dry prior to further handling. All fungicides were evaluated using the aforementioned method for their activity vs. all target diseases, unless stated otherwise. Wheat leaf blotch and brown rust activity were also evaluated using track spray applications, in which case the fungicides were formulated as EC formulations, containing 0.1% Trycol 5941 in the spray solutions. Wheat plants (variety Yuma) were grown from seed in a greenhouse in 50% mineral soil/50% soil-less Metro mix until the first leaf was fully emerged, with 7-10 seedlings per pot. These plants were inoculated with an aqueous spore suspension of Zymoseptoria tritici either prior to or after fungicide treatments. After inoculation the plants were kept in 100% relative humidity (one day in a dark dew chamber followed by two to three days in a lighted dew chamber at 20° C.) to permit spores to germinate and infect the leaf. The plants were then transferred to a greenhouse set at 20° C. for disease to develop. When disease symptoms were fully expressed on the 1st leaves of untreated plants, infection levels were assessed on a scale of 0 to 100 percent disease severity. Percent disease control was calculated using the ratio of disease severity on treated plants relative to untreated plants.

Puccinia triticina = assay: Fungicidal activity: wheat brown rust (PUCCRT), disease control on wheat seedlings; type: in vivo, Puccinia triticina on wheat plants (variety Yuma); details: for pest or weed control at 100 ppm: high volume application; for pest or weed control at 121.5 g/ha: low volume application, 121.5 g/H
Procedure: Technical grades of materials were dissolved in acetone, which were then mixed with nine volumes of water (H2O) containing 110 ppm Triton X-100. The fungicide solutions were applied onto wheat seedlings using an automated booth sprayer to run-off. All sprayed plants were allowed to air dry prior to further handling. All fungicides were evaluated using the aforementioned method for their activity vs. all target diseases, unless stated otherwise. Wheat leaf blotch and brown rust activity were also evaluated using track spray applications, in which case the fungicides were formulated as EC formulations, containing 0.1% Trycol 5941 in the spray solutions. Evaluation of Fungicidal Activity: Wheat Brown Rust (Puccinia triticina; Synonym: Puccinia recondita f. Sp. Tritici; Bayer Code PUCCRT) Wheat plants (variety Yuma) were grown from seed in a greenhouse in 50% mineral soil/50% soil-less Metro mix until the first leaf was fully emerged, with 7-10 seedlings per pot. These plants were inoculated with an aqueous spore suspension of Puccinia triticina either prior to or after fungicide treatments. After inoculation the plants were kept in a dark dew room at 22° C. with 100% relative humidity overnight to permit spores to germinate and infect the leaf. The plants were then transferred to a greenhouse set at 24° C. for disease to develop. Fungicide formulation, application and disease assessment followed the procedures as described in the Example A. The results of the evalution are shown below in Table 4.

Phakopsora pachyrhizi = assay: Fungicidal activity: Asian soybean rust (PHAKPA), disease control on soybean seedlings; type: in vivo
Procedure: Evaluation of Fungicidal Activity: Asian Soybean Rust (Phakopsora Pachyrhizi; Bayer Code PHAKPA)
Technical grades of materials were dissolved in acetone, which were then mixed with nine volumes of H2O containing 0.011% Tween 20. The fungicide solutions were applied onto soybean seedlings using an automated booth sprayer to run-off. All sprayed plants were allowed to air dry prior to further handling.
Soybean plants (variety Williams 82) were grown in soil-less Metro mix, with one plant per pot. Two weeks old seedlings were used for testing. Plants were inoculated either 3 days prior to or 1 day after fungicide treatments. Plants were incubated for 24 h in a dark dew room at 22° C. and 100% relative humidity then transferred to a growth room at 23° C. for disease to develop. Disease severity was assessed on the sprayed leaves.

[1] = 24 h, 1 day protectant, read-out: SEPTTR 1DP disease control, HV activity at 100 ppm
[2] = 72 h, 3 day curative, read-out: SEPTTR 3DC disease control, HV activity at 100 ppm
[3] = 24 h, 1 day protectant, read-out: PUCCRT 1DP disease control, HV activity at 100 ppm
[4] = 72 h, 3 day curative, read-out: PUCCRT 3DC disease control, HV activity at 100 ppm
[5] = 24 h, 1 day protectant, read-out: SEPTTR 1DP disease control, LV activity at 121.5 g/H
[6] = 72 h, 3 day curative, read-out: SEPTTR 3DC disease control, LV activity at 121.5 g/H
[7] = 24 h, 1 day protectant, read-out: PHAKPA 1DP disease control at 25 ppm
[8] = 72 h, 3 day curative, read-out: PHAKPA 3DC disease control at 25 ppm
[9] = 24 h, 1 day protectant, read-out: PUCCRT 1DP disease control, LV activity at 121.5 g/H
[10] = 72 h, 3 day curative, read-out: PUCCRT 3DC disease control, LV activity at 121.5 g/H

Row | SMILES | pest or weed control at 100 ppm (Zymoseptoria tritici; [1]) [%] | pest or weed control at 100 ppm (Zymoseptoria tritici; [2]) [%] | melting point [°C] | pest or weed control at 100 ppm (Puccinia triticina; [3]) [%] | pest or weed control at 100 ppm (Puccinia triticina; [4]) [%] | pest or weed control at 121.5 g/ha (Zymoseptoria tritici; [5]) [%] | pest or weed control at 121.5 g/ha (Zymoseptoria tritici; [6]) [%] | pest or weed control at 25 ppm (Phakopsora pachyrhizi; [7]) [%] | pest or weed control at 25 ppm (Phakopsora pachyrhizi; [8]) [%] | pest or weed control at 121.5 g/ha (Puccinia triticina; [9]) [%] | pest or weed control at 121.5 g/ha (Puccinia triticina; [10]) [%]
1 | COc1cc(F)ccc1C(c1ccc(F)cc1OC)[C@H](C)OC(=O)[C@H](C)NC(=S)c1nccc(OC)c1O [Compound 23] | > 80 | > 80 | 59 to 75 | > 80 | ≤ 80 | – | – | – | – | – | –
2 | COc1cc(F)ccc1[C@@H](c1ccc(F)cc1)[C@H](C)OC(=O)[C@H](C)NC(=S)c1nccc(OC)c1O [Compound 24] | > 80 | > 80 | 54 to 70 | > 80 | ≤ 80 | – | – | – | – | – | –
3 | CC[C@H](OC(=O)[C@H](C)NC(=S)c1nccc(OC)c1O)[C@@H](C)Oc1ccccc1 [Compound 25] | – | – | 80 to 86 | ≤ 80 | – | – | – | – | – | – | –
4 | COc1ccnc(C(=S)N[C@H](C)C(=O)O[C@H](C)C(c2ccc(F)cc2)c2ccc(F)cc2)c1O [Compound 28] | – | – | 53 to 64 | – | – | – | – | – | – | – | –
5 | COc1ccnc(C(=S)N[C@@H](C)C(=O)O[C@@H](C)C(c2ccc(F)cc2F)c2ccc(F)cc2F)c1OC(C)=O [Compound 63] | – | – | – | – | – | > 80 | > 80 | > 80 | ≤ 80 | > 80 | ≤ 80
6 | COc1ccnc(C(=S)N[C@@H](C)C(=O)O[C@@H](C)[C@@H](c2ccc(F)cc2)c2ccc(F)cc2C)c1OC(C)=O [Compound 64] | – | – | – | – | – | > 80 | > 80 | > 80 | > 80 | > 80 | ≤ 80
7 | COc1cc(C)ccc1C(c1ccc(C)cc1OC)[C@H](C)OC(=O)[C@H](C)NC(=S)c1nccc(OC)c1OC(C)=O [Compound 65] | – | – | – | – | – | > 80 | > 80 | > 80 | ≤ 80 | > 80 | > 80
8 | COc1cc(F)ccc1C(c1ccc(F)cc1OC)[C@H](C)OC(=O)[C@H](C)NC(=S)c1nccc(OC)c1OC(C)=O [Compound 67] | – | – | – | – | – | > 80 | > 80 | > 80 | ≤ 80 | > 80 | ≤ 80
9 | COc1ccnc(C(=S)N[C@H](C)C(=O)O[C@H](C)C(c2ccc(F)cc2)c2ccc(F)cc2)c1OC(C)=O [Compound 68] | – | – | – | – | – | ≤ 80 | – | ≤ 80 | – | – | ≤ 80
10 | COc1ccnc(C(=S)N[C@@H](C)C(=O)O[C@@H](C(C)C)[C@@H](C)Oc2ccccc2)c1OC(C)=O [Compound 69] | – | – | – | – | – | – | ≤ 80 | ≤ 80 | – | ≤ 80 | ≤ 80
11 | COc1cc(F)ccc1[C@@H](c1ccc(F)cc1)[C@H](C)OC(=O)[C@H](C)NC(=S)c1nccc(OC)c1OC(C)=O [Compound 70] | – | – | – | – | – | > 80 | > 80 | > 80 | ≤ 80 | > 80 | > 80
12 | COc1ccnc(C(=S)N[C@@H](C)C(=O)O[C@@H](C)[C@H](Oc2ccc(Cl)cc2)C2CCCC2)c1OC(C)=O [Compound 71] | – | – | – | – | – | > 80 | ≤ 80 | ≤ 80 | – | > 80 | > 80
13 | COc1ccnc(C(=S)N[C@@H](C)C(=O)O[C@@H](C)[C@@H](c2ccccc2)c2ccc(F)cc2C)c1OC(C)=O [Compound 72] | – | – | – | – | – | > 80 | > 80 | > 80 | > 80 | > 80 | > 80
14 | COc1ccnc(C(=S)N[C@@H](C)C(=O)O[C@H](C(C)C)[C@H](C)Oc2ccc(F)cc2)c1OC(C)=O [Compound 73] | – | – | – | – | – | > 80 | > 80 | > 80 | > 80 | > 80 | > 80
15 | COc1ccnc(C(=S)N[C@@H](C)C(=O)O[C@@H](C)[C@H](Oc2ccccc2)c2ccc(F)cc2C)c1OC(C)=O [Compound 74] | – | – | – | – | – | > 80 | > 80 | ≤ 80 | ≤ 80 | > 80 | ≤ 80
16 | COc1ccnc(C(=S)N[C@@H](C)C(=O)O[C@@H](C)[C@H](Oc2ccccc2)c2ccc(F)cc2Cl)c1OC(C)=O [Compound 75] | – | – | – | – | – | > 80 | > 80 | ≤ 80 | ≤ 80 | > 80 | ≤ 80
17 | COc1ccnc(C(=S)N[C@@H](C)C(=O)O[C@@H](C)[C@H](Oc2cccc(F)c2)C(C)C)c1OC(C)=O [Compound 77] | – | – | – | – | – | ≤ 80 | > 80 | > 80 | ≤ 80 | > 80 | > 80
18 | COc1ccnc(C(=S)N[C@@H](C)C(=O)O[C@@H](C)C(c2ccc(F)cc2)c2ccc(F)cc2)c1OC(C)=O [Compound 78] | – | – | – | – | – | > 80 | > 80 | ≤ 80 | – | > 80 | ≤ 80
